# Measured values taken from patent US6977262B2, “Dihydropyrazolopyridine compounds and pharmaceutical use thereof” (Mitsubishi Pharma Corporation, priority 2001, dated 2005).
# pIC50: −log10 of the molar value.
# Biological target: rabbit GSK-3β (Oryctolagus cuniculus, UniProt G1T8E2)
# Experiment: GSK-3β-inhibitory activity (phosphorylation of CREB phosphopeptide, [γ-32P]ATP, scintillation counting)
# Type: biochemical
# Conditions: rabbit GSK-3β (0.5 unit), 30° C. for 20 minutes, Table 1
# Protocol: CREB phosphopeptide ([…]), rabbit GSK-3β (0.5 unit), ATP ([…]), [γ-^32P]ATP (12.3 kBq) and a test compound were reacted in a GSK-3β buffer solution (25 μL) (20 mmol/L Tris-HCl (pH 7.5), 10 mmol/L magnesium chloride, 5 mmol/L dithiothreitol) containing 1% dimethyl sulfoxide, at 30° C. for 20 minutes. The reaction product (10 μL) was adsorbed on a P81 ion-exchange paper, and the paper was washed with phosphoric acid (100 mmol/L) and measured for cpm on a scintillation counter.
# CREB Phosphopeptide is Lys-Arg-Arg-Glu-Ile-Leu-Ser-Arg-Arg-Pro-Ser(P)-Tyr-Arg.
# Chain of rabbit GSK-3β (G1T8E2 1-432): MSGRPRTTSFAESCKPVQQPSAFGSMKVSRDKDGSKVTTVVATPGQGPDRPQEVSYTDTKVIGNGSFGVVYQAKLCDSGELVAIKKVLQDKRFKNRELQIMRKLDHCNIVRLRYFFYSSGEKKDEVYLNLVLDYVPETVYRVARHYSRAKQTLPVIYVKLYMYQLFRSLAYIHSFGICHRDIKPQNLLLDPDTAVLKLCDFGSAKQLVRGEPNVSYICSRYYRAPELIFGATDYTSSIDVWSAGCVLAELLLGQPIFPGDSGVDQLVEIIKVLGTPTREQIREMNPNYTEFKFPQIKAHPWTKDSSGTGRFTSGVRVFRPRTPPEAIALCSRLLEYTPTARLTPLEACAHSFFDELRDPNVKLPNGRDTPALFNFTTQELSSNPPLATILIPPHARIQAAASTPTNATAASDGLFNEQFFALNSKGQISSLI
row,pIC50,Structure (SMILES)
1,8.74,"N#CC1=C(C2CCCCC2=O)Nc2n[nH]cc2C1c1cccc2nonc12 (stereo not drawn) [Example 1058, 4-(2,1,3-Benzoxadiazol-4-yl)-5-cyano-4,7-dihydro-6-(2-oxocyclohexan-1-yl)-2H-pyrazolo[3,4-b]pyridine]"
2,7.85,"CN1CCOC(C2=C(C#N)C(c3cccc4nonc34)c3c[nH]nc3N2)C1 (stereo not drawn) [Example 1011, 4-(2,1,3-Benzoxadiazol-4-yl)-5-cyano-4,7-dihydro-6-(4-methylmorpholin-2-yl)-2H-pyrazolo[3,4-b]pyridine]"
3,8.49,"CN1C[C@@H]2CC[C@H]1[C@H](C1=C(C#N)C(c3cccc(C#N)c3Br)c3c[nH]nc3N1)C2 (stereo partly drawn) [Example 1148, 4-(2-Bromo-3-cyanophenyl)-5-cyano-4,7-dihydro-6-(exo-2-methyl-2-azabicyclo[2,2,2]octan-6-yl)-2H-pyrazolo[3,4-b]pyridine]"

# System: not given
# Experiment: not given
# Conditions: not given
row,melting point,Structure (SMILES)
1,165 °C,"N#CC1=C(c2cccs2)Nc2n[nH]cc2C1c1ccccc1[N+](=O)[O-] (stereo not drawn) [Example 244, 5-Cyano-4,7-dihydro-4-(2-nitrophenyl)-6-(thiophen-2-yl)-2H-pyrazolo[3,4-b]pyridine]"
2,210 °C,"N#CC1=C(C2CCCCC2)Nc2n[nH]cc2C1c1cccc2nonc12 (stereo not drawn) [Example 323, 4-(2,1,3-Benzoxadiazol-4-yl)-5-cyano-6-cyclohexyl-4,7-dihydro-2H-pyrazolo[3,4-b]pyridine]"
3,> 250 °C,"CC(C)C1=C(C#N)C(c2ccccc2Cl)c2c[nH]nc2N1 (stereo not drawn) [Example 203, 4-(2-Chlorophenyl)-5-cyano-4,7-dihydro-6-isopropyl-2H-pyrazolo[3,4-b]pyridine]"
4,220 °C,"N#CC1=C(c2cc3ccccc3s2)Nc2n[nH]cc2C1c1cccc2nonc12 (stereo not drawn) [Example 305, 4-(2,1,3-Benzoxadiazol-4-yl)-6-(benzothiophen-2-yl)-5-cyano-4,7-dihydro-2H-pyrazolo[3,4-b]pyridine]"
5,> 250 °C,"N#CC1=C(C2CC2)Nc2n[nH]cc2C1c1ccccc1Br (stereo not drawn) [Example 267, 4-(2-Bromophenyl)-5-cyano-6-cyclopropyl-4,7-dihydro-2H-pyrazolo[3,4-b]pyridine]"
6,254 to 257 °C,"CC(C)C1=C(C#N)C(c2cccc(N3CCOCC3)c2)c2c[nH]nc2N1 (stereo not drawn) [Example 365, 5-Cyano-4,7-dihydro-4-(3-(morpholin-4-yl)phenyl)-6-isopropyl-2H-pyrazolo[3,4-b]pyridine]"
7,> 230 °C,"N#CC1=C(C2CC(=O)N(Cc3ccccc3)C2)Nc2n[nH]cc2C1c1ccccc1Cl (stereo not drawn) [Example 1083, 6-(1-Benzyl-2-oxopyrrolidin-4-yl)-4-(2-chlorophenyl)-5-cyano-4,7-dihydro-2H-pyrazolo[3,4-b]pyridine]"
8,180 °C,"CCCC1=C(C#N)C(c2ccccc2Cl)c2c(n[nH]c2CC(OC)OC)N1 (stereo not drawn) [Example 330, 4-(2-Chlorophenyl)-5-cyano-4,7-dihydro-3-(2,2-dimethoxyethyl)-6-propyl-2H-pyrazolo[3,4-b]pyridine]"
9,> 270 °C,"CCCC1=C(C#N)C(c2ccccc2Cl)c2c(n[nH]c2C2CCCCC2)N1 (stereo not drawn) [Example 311, 4-(2-Chlorophenyl)-5-cyano-3-cyclohexyl-4,7-dihydro-6-propyl-2H-pyrazolo[3,4-b]pyridine]"
10,215 to 220 °C (dec.),"N#CC1=C(CO)Nc2n[nH]cc2C1c1cccc2nonc12 (stereo not drawn) [Example 257, 4-(2,1,3-Benzoxadiazol-4-yl)-5-cyano-4,7-dihydro-6-hydroxymethyl-2H-pyrazolo[3,4-b]pyridine]"
11,237 °C,"CCCC1=C(C#N)C(c2ccccc2Cl)c2c(n[nH]c2CCC)N1 (stereo not drawn) [Example 302, 4-(2-Chlorophenyl)-5-cyano-4,7-dihydro-3,6-dipropyl-2H-pyrazolo[3,4-b]pyridine]"
12,276 °C,"Cc1ccccc1C1C(C#N)=C(c2cccs2)Nc2n[nH]cc21 (stereo not drawn) [Example 249, 5-Cyano-4,7-dihydro-4-(2-methylphenyl)-6-(thiophen-2-yl)-2H-pyrazolo[3,4-b]pyridine]"

# Further lines, the compound ahead of its results:
row,Structure (SMILES),melting point
1,"CCCC1=C(C(=O)OCC)C(c2cccc(F)c2F)c2c[nH]nc2N1 (stereo not drawn) [Example 43, Ethyl 4-(2,3-difluorophenyl)-4,7-dihydro-6-propyl-2H-pyrazolo[3,4-b]pyridine-5-carboxylate]",207 °C
2,"CSc1ccccc1C1C(C#N)=C(c2ccccc2)Nc2n[nH]cc21 (stereo not drawn) [Example 143, 5-Cyano-4,7-dihydro-4-(2-methylthiophenyl)-6-phenyl-2H-pyrazolo[3,4-b]pyridine]",146 °C
3,"CC1=C(C(=O)NN)C(c2ccccc2Cl)c2c[nH]nc2N1 (stereo not drawn) [Example 9, 4-(2-Chlorophenyl)-5-hydrazinocarbonyl-4,7-dihydro-6-methyl-2H-pyrazolo[3,4-b]pyridine]",220 °C
4,"CCCC1=C(C(=O)OCC)C(c2cccc(Br)c2Br)c2c[nH]nc2N1 (stereo not drawn) [Example 181, Ethyl 4-(2,3-dibromophenyl)-4,7-dihydro-6-propyl-2H-pyrazolo[3,4-b]pyridine-5-carboxylate]",180 to 183 °C (dec.)
5,"CCCCC1=C([N+](=O)[O-])C(c2cccc(Cl)c2Cl)c2c[nH]nc2N1 (stereo not drawn) [Example 127, 6-Butyl-4-(2,3-dichlorophenyl)-4,7-dihydro-5-nitro-2H-pyrazolo[3,4-b]pyridine]",220 °C
6,"CCCC1=C(C(=O)OCC)C(c2cccc(F)c2C)c2c[nH]nc2N1 (stereo not drawn) [Example 45, Ethyl 4-(3-fluoro-2-methylphenyl)-4,7-dihydro-6-propyl-2H-pyrazolo[3,4-b]pyridine-5-carboxylate]",159 to 162 °C
7,"CCCC1=C(C(=O)OCC)C(c2ccccc2OC2CCCC2)c2c[nH]nc2N1 (stereo not drawn) [Example 37, Ethyl 4-(2-cyclopentyloxyphenyl)-4,7-dihydro-6-propyl-2H-pyrazolo[3,4-b]pyridine-5-carboxylate]",195 °C
8,"CCCC1=C(C(=O)OCC)C(c2cccc3ccsc23)c2c[nH]nc2N1 (stereo not drawn) [Example 106, Ethyl 4-(benzo[b]thiophen-7-yl)-4,7-dihydro-6-propyl-2H-pyrazolo[3,4-b]pyridine-5-carboxylate]",166 °C
9,"CCCC1=C(C(=O)OCC)C(c2cccc3nonc23)c2c[nH]nc2N1 (single isomer, unassigned; (+)) [Example 116, (+)Ethyl 4-(2,1,3-benzoxadiazol-4-yl)-4,7-dihydro-6-propyl-2H-pyrazolo[3,4-b]pyridine-5-carboxylate]",159 °C
10,"N#CC1=C(c2ccccc2)Nc2n[nH]cc2C1c1cccc2nsnc12 (stereo not drawn) [Example 162, 4-(2,1,3-Benzothiadiazol-4-yl)-5-cyano-4,7-dihydro-6-phenyl-2H-pyrazolo[3,4-b]pyridine]",258 °C
11,"CC1=C(C(=O)OC(C)(C)C)C(c2ccccc2Cl)c2c[nH]nc2N1 (stereo not drawn) [Example 5, t-Butyl 4-(2-chlorophenyl)-4,7-dihydro-6-methyl-2H-pyrazolo[3,4-b]pyridine-5-carboxylate]",207 °C
12,"CC(C)(C)OC(=O)NCCC1=C(C#N)C(c2cccc3nonc23)c2c[nH]nc2N1 (stereo not drawn) [Example 1017, 4-(2,1,3-Benzoxadiazol-4-yl)-6-(2-(N-t-butoxycarbonyl-amino)ethyl)-5-cyano-4,7-dihydro-2H-pyrazolo[3,4-b]pyridine]",231 °C
13,"CCCC1=C(C(=O)OCC)C(c2ccc(Cl)s2)c2c[nH]nc2N1.O=C(O)/C=C\C(=O)O (stereo not drawn) [Example 64, Ethyl 4-(5-chlorothiophen-2-yl)-4,7-dihydro-6-propyl-2H-pyrazolo[3,4-b]pyridine-5-carboxylate maleate]",129 to 131 °C
14,"CCCCOc1ccccc1C1C(C(=O)OCC)=C(CCC)Nc2n[nH]cc21 (stereo not drawn) [Example 36, Ethyl 4-(2-butoxyphenyl)-4,7-dihydro-6-propyl-2H-pyrazolo[3,4-b]pyridine-5-carboxylate]",171 °C
15,"COc1ccccc1C1=C(C#N)C(c2cccc3nonc23)c2c[nH]nc2N1 (stereo not drawn) [Example 159, 4-(2,1,3-Benzoxadiazol-4-yl)-5-cyano-4,7-dihydro-6-(2-methoxyphenyl)-2H-pyrazolo[3,4-b]pyridine]",180 °C
16,"CCOC(=O)C1=C(C(F)(F)F)Nc2n[nH]cc2C1c1ccccc1 (stereo not drawn) [Example 12, Ethyl 4,7-dihydro-4-phenyl-6-trifluoromethyl-2H-pyrazolo[3,4-b]pyridine-5-carboxylate]",110 to 115 °C
17,"CCCC1=C(C(=O)OCC)C(c2cccc(Cl)c2C)c2c[nH]nc2N1 (stereo not drawn) [Example 111, Ethyl 4-(3-chloro-2-methylphenyl)-4,7-dihydro-6-propyl-2H-pyrazolo[3,4-b]pyridine-5-carboxylate]",185 °C
18,"CCCC1=C(C(=O)OCC)C(c2c(F)cccc2Cl)c2c[nH]nc2N1 (stereo not drawn) [Example 56, Ethyl 4-(2-chloro-6-fluorophenyl)-4,7-dihydro-6-propyl-2H-pyrazolo[3,4-b]pyridine-5-carboxylate]",180 to 183 °C
19,"CCC1=C(C#N)C(c2cccc(Cl)c2Cl)c2c[nH]nc2N1 (stereo not drawn) [Example 193, 5-Cyano-4-(2,3-dichlorophenyl)-6-ethyl-4,7-dihydro-2H-pyrazolo[3,4-b]pyridine]",> 300 °C
20,"CCCC1=C(C(=O)OC)C(c2ccccc2Cl)c2c[nH]nc2N1 (stereo not drawn) [Example 28, Methyl 4-(2-chlorophenyl)-4,7-dihydro-6-propyl-2H-pyrazolo[3,4-b]pyridine-5-carboxylate]",203 to 207 °C
21,"CCC1=C([N+](=O)[O-])C(c2cccc(Cl)c2Cl)c2c[nH]nc2N1 (stereo not drawn) [Example 126, 4-(2,3-Dichlorophenyl)-6-ethyl-4,7-dihydro-5-nitro-2H-pyrazolo[3,4-b]pyridine]",250 °C
